Source: publication PMC3222680 (PLoS ONE, 2011)

What was measured:
Type in all cases: cell-based
αV25′A αB-βWT GlyR = molecular target: T1, αV25′A αB-βWT GlyR (Homo sapiens, UniProt P23415+P48167, A80Q/V305A)
T1 construct: expressed in transfected cells; host or cells: HEK293 (ATCC)
Protocol: (§1) The human GlyR α1 and β subunit cDNAs were subcloned into the pcDNA3.1zeo+ (Invitrogen) or pGEMHE [44] plasmid vectors for expression in HEK293 cells or Xenopus oocytes, respectively. Site-directed mutagenesis and chimera construction were performed using the QuickChange (Stratagene, La Jolla, CA, USA) mutagenesis and multiple-template-based sequential PCR protocols, respectively.
(§2) The effects of the hyperekplexia-mimicking mutations, K24′A, V25′A and Y27′A, were examined on GlyRs expressed in HEK293 cells (ATCC). Details of the HEK293 cell culture, GlyR expression and electrophysiological recording of the HEK293 cells are described elsewhere. Briefly, HEK293 cells were maintained in DMEM supplemented with 10% fetal bovine serum. Cells were transfected using a calcium phosphate precipitation protocol. When co-transfecting the α1 together with the β or any other chimera subunits, their respective cDNAs were combined in a ratio of 1∶10. In addition, the pEGFP-N1 (Clontech) was co-transfected to facilitate identifying the transfected cells. […] Cells were treated with external Ringer's solution and internal CsCl solution [30]. Cells were voltage-clamped at −40 mV. When the heteromeric GlyRs were expressed, the picrotoxin sensitivity was tested to confirm that the majority of receptors are heteromers, [30].
(§3) Results are expressed as mean±standard error of the mean of three or more independent experiments. […] Statistical significance was determined using the Student's t-test.

αV25′A βWT GlyR = molecular target: T2, αV25′A βWT GlyR (Homo sapiens, UniProt P23415+P48167, V305A)
T2 construct: expressed in transfected cells; host or cells: HEK293 (ATCC)
Protocol: as §1, §2, §3

αWT αB-βWT GlyR = molecular target: T3, αWT αB-βWT GlyR (Homo sapiens, UniProt P23415+P48167, A165S/A240V/A277S/A316I/A325S/A80Q/DEL290-297/E245R/G282P/H243T/I181K/I238V/I253M/I257A/I264V/I268L/I311L/I313V/INS301ECTTLAAE/K171T/L252M/L327V/M168L/M248V/M255V/M274P/M315L/N172L/P278A/Q254G/R241I/R299L/S259T/S324A/T179R/T286F/T287S/V177T/V317A/V322G/Y250F)
T3 construct: expressed in transfected cells; host or cells: HEK293 (ATCC)
Protocol: as §1, §2, §3

αV25′A αT-βWT GlyR = molecular target: T4, αV25′A αT-βWT GlyR (Homo sapiens, UniProt P23415+P48167, Q95A/V305A)
T4 construct: expressed in transfected cells; host or cells: HEK293 (ATCC)
Protocol: as §1, §2, §3

αWT αT-βWT GlyR = molecular target: T5, αWT αT-βWT GlyR (Homo sapiens, UniProt P23415+P48167, I259R/K198I/L185M/L189N/Q95A/R196T/R263E/S182A/T188K/T194V/T261H/V256I/V258A)
T5 construct: expressed in transfected cells; host or cells: HEK293 (ATCC)
T5 sequence (P23415 29-449 isoform P23415-2, stated change not applied): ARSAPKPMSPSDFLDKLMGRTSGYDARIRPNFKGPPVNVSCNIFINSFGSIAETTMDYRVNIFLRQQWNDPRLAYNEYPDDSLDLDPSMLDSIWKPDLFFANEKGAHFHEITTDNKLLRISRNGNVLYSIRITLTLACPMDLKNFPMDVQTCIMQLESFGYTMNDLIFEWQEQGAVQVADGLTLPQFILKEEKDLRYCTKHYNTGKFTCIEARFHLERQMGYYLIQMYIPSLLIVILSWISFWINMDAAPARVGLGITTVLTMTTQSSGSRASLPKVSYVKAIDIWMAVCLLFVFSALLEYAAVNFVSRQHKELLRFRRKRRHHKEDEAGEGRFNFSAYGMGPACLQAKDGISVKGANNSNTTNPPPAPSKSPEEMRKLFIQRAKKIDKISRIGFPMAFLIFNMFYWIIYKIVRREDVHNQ
T5 sequence (P48167 23-497 Q95A/S182A/L185M/T188K/L189N/T194V/R196T/K198I/V256I/V258A/I259R/T261H/R263E): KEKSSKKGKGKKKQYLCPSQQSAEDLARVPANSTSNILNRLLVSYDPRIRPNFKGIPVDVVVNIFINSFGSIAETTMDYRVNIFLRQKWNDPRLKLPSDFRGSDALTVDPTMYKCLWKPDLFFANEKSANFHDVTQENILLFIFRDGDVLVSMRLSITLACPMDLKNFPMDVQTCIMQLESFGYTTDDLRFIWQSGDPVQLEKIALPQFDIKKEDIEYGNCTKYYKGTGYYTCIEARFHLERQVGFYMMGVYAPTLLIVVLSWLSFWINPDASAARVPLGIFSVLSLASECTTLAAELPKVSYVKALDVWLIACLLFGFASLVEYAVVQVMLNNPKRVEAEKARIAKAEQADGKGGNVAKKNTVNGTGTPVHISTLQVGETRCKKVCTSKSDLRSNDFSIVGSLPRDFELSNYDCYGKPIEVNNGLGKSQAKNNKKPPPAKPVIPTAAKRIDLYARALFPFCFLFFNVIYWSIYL
Protocol: as §1, §2, §3

αWT α-βWT GlyR = molecular target: T6, αWT α-βWT GlyR (Homo sapiens, UniProt P23415+P48167, A277S/A316I/A325S/DEL290-297/G282P/I253M/I257A/I264V/I268L/I311L/I313V/INS301ECTTLAAE/L252M/L327V/M248V/M255V/M274P/M315L/P278A/Q254G/R299L/S259T/S324A/T286F/T287S/V317A/V322G/Y250F)
T6 construct: The α R218-Q219 and β R242-Q243 are also the joining sites for chimeras constructed between the ECD and TMD; expressed in transfected cells; host or cells: HEK293 (ATCC)
T6 sequence (P23415 29-449 isoform P23415-2, stated change not applied): as the sequence (P23415 29-449 isoform P23415-2, stated change not applied) above
T6 sequence (P23415+P48167 fused with the stated changes): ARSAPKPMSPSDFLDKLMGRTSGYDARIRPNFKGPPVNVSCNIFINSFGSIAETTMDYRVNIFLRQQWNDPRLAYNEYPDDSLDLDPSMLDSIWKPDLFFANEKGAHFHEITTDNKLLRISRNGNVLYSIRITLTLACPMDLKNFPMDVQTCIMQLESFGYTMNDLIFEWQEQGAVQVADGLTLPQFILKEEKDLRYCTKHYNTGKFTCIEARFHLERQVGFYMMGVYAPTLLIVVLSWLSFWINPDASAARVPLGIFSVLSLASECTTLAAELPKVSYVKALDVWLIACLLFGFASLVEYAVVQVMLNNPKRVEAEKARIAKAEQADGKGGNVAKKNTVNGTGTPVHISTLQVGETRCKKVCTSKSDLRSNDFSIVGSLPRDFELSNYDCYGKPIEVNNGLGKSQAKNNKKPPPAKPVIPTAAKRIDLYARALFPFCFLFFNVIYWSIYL
Protocol: as §1, §2, §3

αWT βWT GlyR = molecular target: T7, αWT βWT GlyR (Homo sapiens, UniProt P23415+P48167)
T7 construct: expressed in transfected cells; host or cells: HEK293 (ATCC)
Protocol: as §1, §2, §3

αR19′A βWT GlyR = molecular target: T8, αR19′A βWT GlyR (Homo sapiens, UniProt P23415+P48167, R299A)
T8 construct: expressed in transfected cells; host or cells: HEK293 (ATCC)
T8 sequence (P23415 29-449 isoform P23415-2 R299A limits assumed): as the sequence (P23415 29-449 isoform P23415-2, stated change not applied) above, with R271A counted along it
T8 sequence (P48167 23-497): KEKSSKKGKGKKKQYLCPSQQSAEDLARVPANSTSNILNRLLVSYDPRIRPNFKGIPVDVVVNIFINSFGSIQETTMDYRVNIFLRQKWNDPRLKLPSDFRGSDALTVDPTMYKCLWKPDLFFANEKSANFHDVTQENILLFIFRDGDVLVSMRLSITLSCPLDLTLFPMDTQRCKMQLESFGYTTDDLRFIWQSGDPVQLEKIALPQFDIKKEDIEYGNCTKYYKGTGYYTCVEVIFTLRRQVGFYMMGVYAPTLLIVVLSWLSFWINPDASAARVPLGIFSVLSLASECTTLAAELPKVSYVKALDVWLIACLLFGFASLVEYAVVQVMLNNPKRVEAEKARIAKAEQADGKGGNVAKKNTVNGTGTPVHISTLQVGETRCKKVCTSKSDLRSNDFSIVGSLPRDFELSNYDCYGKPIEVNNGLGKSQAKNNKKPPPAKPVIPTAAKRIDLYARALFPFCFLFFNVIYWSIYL
Protocol: as §1, §2, §3

αWT αT-βV25′A GlyR = molecular target: T9, αWT αT-βV25′A GlyR (Homo sapiens, UniProt P23415+P48167, I259R/K198I/L185M/L189N/Q95A/R196T/R263E/S182A/T188K/T194V/T261H/V256I/V258A/V323A)
T9 construct: expressed in transfected cells; host or cells: HEK293 (ATCC)
Protocol: as §1, §2, §3

αWT βY27′A GlyR = molecular target: T10, αWT βY27′A GlyR (Homo sapiens, UniProt P23415+P48167, Y325A)
T10 construct: expressed in transfected cells; host or cells: HEK293 (ATCC)
T10 sequence (P23415 29-449 isoform P23415-2 limits assumed, stated change not applied): as the sequence (P23415 29-449 isoform P23415-2, stated change not applied) above
T10 sequence (P48167 23-497 Y325A): as the sequence (P48167 23-497) above, with Y303A counted along it
Protocol: as §1, §2, §3

αK24′A α-βWT GlyR = molecular target: T11, αK24′A α-βWT GlyR (Homo sapiens, UniProt P23415+P48167, K304A)
T11 construct: The α R218-Q219 and β R242-Q243 are also the joining sites for chimeras constructed between the ECD and TMD; expressed in transfected cells; host or cells: HEK293 (ATCC)
Protocol: as §1, §2, §3

αK24′A βWT GlyR = molecular target: T12, αK24′A βWT GlyR (Homo sapiens, UniProt P23415+P48167, K304A)
T12 construct: expressed in transfected cells; host or cells: HEK293 (ATCC)
Protocol: as §1, §2, §3

αWT α-βV25′A GlyR = molecular target: T13, αWT α-βV25′A GlyR (Homo sapiens, UniProt P23415+P48167, A277S/G282P/I253M/I257A/I264V/I268L/L252M/M248V/M255V/M274P/P278A/Q254G/S259T/V323A/Y250F)
T13 construct: The α R218-Q219 and β R242-Q243 are also the joining sites for chimeras constructed between the ECD and TMD; expressed in transfected cells; host or cells: HEK293 (ATCC)
T13 sequence (P23415 29-449 isoform P23415-2, stated change not applied): as the sequence (P23415 29-449 isoform P23415-2, stated change not applied) above
T13 sequence (P23415+P48167 fused with the stated changes): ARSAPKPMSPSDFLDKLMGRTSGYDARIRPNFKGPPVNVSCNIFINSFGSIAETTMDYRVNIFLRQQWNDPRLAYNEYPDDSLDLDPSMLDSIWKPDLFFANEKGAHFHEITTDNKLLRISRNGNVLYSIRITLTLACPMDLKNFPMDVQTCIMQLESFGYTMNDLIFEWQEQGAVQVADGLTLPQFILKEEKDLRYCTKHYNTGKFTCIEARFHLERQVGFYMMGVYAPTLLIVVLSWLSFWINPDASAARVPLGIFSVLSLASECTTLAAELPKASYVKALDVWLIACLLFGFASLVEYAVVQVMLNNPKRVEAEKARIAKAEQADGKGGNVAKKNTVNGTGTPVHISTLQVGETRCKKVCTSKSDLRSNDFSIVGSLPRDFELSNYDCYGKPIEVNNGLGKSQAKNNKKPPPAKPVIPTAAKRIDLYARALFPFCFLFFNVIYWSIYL
Protocol: as §1, §2, §3

[1] = αV25′A αB-βWT, HEK293, with glycine at EC50 of α1 homomer
[2] = αV25′A βWT, HEK293, with glycine at EC50 of α1 homomer
[3] = αWT αB-βWT, HEK293, with glycine at EC50 of α1 homomer
[4] = αV25′A αT-βWT, HEK293, with glycine at EC50 of α1 homomer
[5] = αWT αT-βWT, HEK293, with glycine at EC50 of α1 homomer
[6] = αWT α-βWT, HEK293, with glycine at EC50 of α1 homomer
[7] = αWT βWT, HEK293, with glycine at EC50 of α1 homomer
[8] = αR19′A βWT, HEK293, with glycine at EC50 of α1 homomer
[9] = αWT αT-βV25′A, HEK293, with glycine at EC50 of α1 homomer
[10] = αWT βY27′A, HEK293, with glycine at EC50 of α1 homomer
[11] = αK24′A α-βWT, HEK293, with glycine at EC50 of α1 homomer
[12] = αK24′A βWT, HEK293, with glycine at EC50 of α1 homomer
[13] = αWT α-βV25′A, HEK293, with glycine at EC50 of α1 homomer

NCC(=O)O [glycine]
Imax (αV25′A αB-βWT GlyR): 5.5±0.9 nA | nH (αV25′A αB-βWT GlyR): 1.1±0.0 | Imax (αV25′A βWT GlyR): 7.4±2.8 nA | nH (αV25′A βWT GlyR): 1.4±0.2 | Imax (αWT αB-βWT GlyR): 8.6±1.6 nA | nH (αWT αB-βWT GlyR): 1.8±0.4 | Imax (αV25′A αT-βWT GlyR): 6.0±1.7 nA | nH (αV25′A αT-βWT GlyR): 1.4±0.2 | Imax (αWT αT-βWT GlyR): 12.0±1.6 nA | nH (αWT αT-βWT GlyR): 2.0±0.1 | Imax (αWT α-βWT GlyR): 4.3±0.7 nA | nH (αWT α-βWT GlyR): 1.3±0.3 | Imax (αWT βWT GlyR): 4.3±1.2 nA | nH (αWT βWT GlyR): 2.0±0.4 | Imax (αR19′A βWT GlyR): 3.9±1.3 nA | nH (αR19′A βWT GlyR): 2.5±0.3 | Imax (αWT αT-βV25′A GlyR): 14±3.0 nA | nH (αWT αT-βV25′A GlyR): 2.3±0.1 | Imax (αWT βY27′A GlyR): 8.0±1.3 nA | nH (αWT βY27′A GlyR): 2.4±0.1 | Imax (αK24′A α-βWT GlyR): 7.2±0.9 nA | nH (αK24′A α-βWT GlyR): 1.0±0.1 | Imax (αK24′A βWT GlyR): 6.3±1.1 nA | nH (αK24′A βWT GlyR): 1.8±0.2 | Imax (αWT α-βV25′A GlyR): 7.6±1.7 nA | nH (αWT α-βV25′A GlyR): 1.3±0.1

picrotoxin [PTX]
10uM PTX inhibition (%) (αV25′A αB-βWT GlyR; [1]): 4.8±0.6% | 100uM PTX inhibition (%) (αV25′A αB-βWT GlyR; [1]): 27±2% | 10uM PTX inhibition (%) (αV25′A βWT GlyR; [2]): 4.7±0.7% | 100uM PTX inhibition (%) (αV25′A βWT GlyR; [2]): 38±3% | 10uM PTX inhibition (%) (αWT αB-βWT GlyR; [3]): 4.8±0.9% | 100uM PTX inhibition (%) (αWT αB-βWT GlyR; [3]): 33±4% | 10uM PTX inhibition (%) (αV25′A αT-βWT GlyR; [4]): 3.7±1.6% | 100uM PTX inhibition (%) (αV25′A αT-βWT GlyR; [4]): 25±4% | 10uM PTX inhibition (%) (αWT αT-βWT GlyR; [5]): 3.2±0.6% | 100uM PTX inhibition (%) (αWT αT-βWT GlyR; [5]): 25±6% | 10uM PTX inhibition (%) (αWT α-βWT GlyR; [6]): 3.8±2.2% | 100uM PTX inhibition (%) (αWT α-βWT GlyR; [6]): 25±2% | 10uM PTX inhibition (%) (αWT βWT GlyR; [7]): 8.5±1.8% | 100uM PTX inhibition (%) (αWT βWT GlyR; [7]): 33±9% | 10uM PTX inhibition (%) (αR19′A βWT GlyR; [8]): 2.8±2.1% | 100uM PTX inhibition (%) (αR19′A βWT GlyR; [8]): 20±9% | 10uM PTX inhibition (%) (αWT αT-βV25′A GlyR; [9]): 8.5±1.8% | 100uM PTX inhibition (%) (αWT αT-βV25′A GlyR; [9]): 36±3% | 10uM PTX inhibition (%) (αWT βY27′A GlyR; [10]): 6.3±0.3% | 100uM PTX inhibition (%) (αWT βY27′A GlyR; [10]): 42±2% | 10uM PTX inhibition (%) (αK24′A α-βWT GlyR; [11]): 4.8±0.7% | 100uM PTX inhibition (%) (αK24′A α-βWT GlyR; [11]): 26±5% | 10uM PTX inhibition (%) (αK24′A βWT GlyR; [12]): 2.2±1.1% | 100uM PTX inhibition (%) (αK24′A βWT GlyR; [12]): 20±5% | 10uM PTX inhibition (%) (αWT α-βV25′A GlyR; [13]): 3.0±1.3% | 100uM PTX inhibition (%) (αWT α-βV25′A GlyR; [13]): 34±4%
